Measured values from ChEMBL document CHEMBL1909046, “DrugMatrix in vitro pharmacology data”.

Experiments:
[1] = molecular target: Aldo-keto reductase family 1 member B1 (Rattus norvegicus, UniProt P07943); assay: biochemical; assay type: tissue-based, Lens of camera-type eye;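 note: inhibition of aldose reductase enzyme activity, measured with DL-glyceraldehyde as the substrate; in other assays of this panel Not Active means under 50% inhibition at 10 µM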
D(3) dopamine receptor = D(3) dopamine receptor (Homo sapiens, UniProt P35462); assay: DRUGMATRIX: Dopamine D3 radioligand binding (ligand: [3H] Spiperone); assay type: cell membranes, CHO, Membrane
Histamine H2 receptor = Histamine H2 receptor (Homo sapiens, UniProt P25021); assay type: cell membranes, CHO-K1, Membrane; note: in other assays of this panel Not Active means under 50% inhibition at 10 µM
[2] = molecular target: Delta-type opioid receptor (Homo sapiens, UniProt P41143); assay type: cell membranes, HEK293, Membrane; settings: hek293; note: in other assays of this panel Not Active means under 50% inhibition at 10 µM
[3] = molecular target: cGMP-specific 3',5'-cyclic phosphodiesterase (Homo sapiens, UniProt O76074); assay: DRUGMATRIX: Phosphodiesterase PDE5 enzyme inhibition (substrate: [3H]cGMP + cGMP); assay type: tissue-based, Platelet; settings: Not Active = under 50% inhibition at 10 µM

Chain of D(3) dopamine receptor (P35462 whole entry): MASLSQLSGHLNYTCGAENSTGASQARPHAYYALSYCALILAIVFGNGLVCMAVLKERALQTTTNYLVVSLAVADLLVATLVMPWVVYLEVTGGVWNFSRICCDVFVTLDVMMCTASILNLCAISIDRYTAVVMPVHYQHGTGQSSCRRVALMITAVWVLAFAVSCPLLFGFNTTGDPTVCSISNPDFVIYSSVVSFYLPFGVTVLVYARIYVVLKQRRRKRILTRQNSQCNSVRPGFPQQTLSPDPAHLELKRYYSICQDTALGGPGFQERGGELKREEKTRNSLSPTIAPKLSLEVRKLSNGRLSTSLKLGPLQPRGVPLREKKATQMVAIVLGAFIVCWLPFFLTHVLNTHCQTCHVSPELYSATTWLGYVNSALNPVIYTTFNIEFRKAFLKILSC
Chain of Histamine H2 receptor (P25021 whole entry): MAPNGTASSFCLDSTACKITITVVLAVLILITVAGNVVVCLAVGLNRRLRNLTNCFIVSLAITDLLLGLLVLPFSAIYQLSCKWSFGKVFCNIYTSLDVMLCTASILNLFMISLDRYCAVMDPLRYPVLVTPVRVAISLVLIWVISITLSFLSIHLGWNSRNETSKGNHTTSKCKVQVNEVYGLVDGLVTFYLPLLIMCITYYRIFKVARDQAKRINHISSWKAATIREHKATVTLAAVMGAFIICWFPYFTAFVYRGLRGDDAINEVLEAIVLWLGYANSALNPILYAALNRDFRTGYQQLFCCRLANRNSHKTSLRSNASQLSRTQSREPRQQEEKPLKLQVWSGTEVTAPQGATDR
Chain of Delta-type opioid receptor (P41143 whole entry): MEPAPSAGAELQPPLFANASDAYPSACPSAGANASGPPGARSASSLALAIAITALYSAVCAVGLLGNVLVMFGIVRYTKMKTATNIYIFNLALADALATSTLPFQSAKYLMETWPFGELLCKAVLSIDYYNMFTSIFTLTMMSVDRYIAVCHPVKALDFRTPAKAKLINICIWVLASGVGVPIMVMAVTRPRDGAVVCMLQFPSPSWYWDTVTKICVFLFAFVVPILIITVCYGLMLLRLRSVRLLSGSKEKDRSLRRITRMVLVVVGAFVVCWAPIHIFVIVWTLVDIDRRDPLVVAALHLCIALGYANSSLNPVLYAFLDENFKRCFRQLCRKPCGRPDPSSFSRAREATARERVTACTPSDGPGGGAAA

Compound | IC50 [1] | IC50 (D(3) dopamine receptor; cho) | IC50 (Histamine H2 receptor; cho-k1) | IC50 [2] | IC50 ([3]; platelet) | further results
O=C(O)c1ccccc1O [SALICYLIC ACID] | Not Active | Not Active | Not Active | Not Active | Not Active | –
C[S+]([O-])c1ccc(-c2nc(-c3ccncc3)c(-c3ccc(F)cc3)[nH]2)cc1 (configuration not stated) [SB-203580] | Not Active | Not Active | Not Active | Not Active | – | IC50 ([3]; read-out: IC50): 11.5 µM
CC1CCC(NC(=O)N(CCCl)N=O)CC1 (configuration not stated) [SEMUSTINE] | Not Active | Not Active | Not Active | Not Active | Not Active | –
O=C1C[C@@H]2OCC=C3CN4CC[C@]56c7ccccc7N1[C@H]5[C@H]2[C@H]3C[C@H]46 [STRYCHNINE] | Not Active | Not Active | Not Active | Not Active | Not Active | –
C[N+](C)(C)CCOC(=O)CCC(=O)OCC[N+](C)(C)C.[Cl-].[Cl-] [SUCCINYLCHOLINE CHLORIDE] | Not Active | Not Active | Not Active | Not Active | Not Active | –
Nc1ccc(S(=O)(=O)NC(=O)c2ccccc2)cc1 [SULFABENZAMIDE] | Not Active | Not Active | Not Active | Not Active | Not Active | –
CCCCCCCCNC(C)C(O)c1ccc(SC(C)C)cc1 (configuration not stated) [SULOCTIDIL] | Not Active | – | – | Not Active | Not Active | IC50 (D(3) dopamine receptor; read-out: IC50): 2.1 µM; Ki (D(3) dopamine receptor; read-out: Ki): 0.715 µM; IC50 (Histamine H2 receptor; read-out: IC50): 0.108 µM; Ki (Histamine H2 receptor; read-out: Ki): 0.0885 µM
O=c1[nH]c(=O)n(C2CCCO2)cc1F (configuration not stated) [TEGAFUR] | Not Active | Not Active | Not Active | Not Active | Not Active | –
CC(=N)S [THIOACETAMIDE] | Not Active | Not Active | Not Active | Not Active | Not Active | –
Cc1ccc(C(=O)c2ccc(CC(=O)O)n2C)cc1 [TOLMETIN] | – | Not Active | Not Active | Not Active | Not Active | IC50 ([1]; read-out: IC50): 2.15 µM
CC(=O)OCC(COC(C)=O)OC(C)=O [TRIACETIN] | Not Active | Not Active | Not Active | Not Active | Not Active | –
CN1CCN(CCCN2c3ccccc3Sc3ccc(C(F)(F)F)cc32)CC1 [TRIFLUOPERAZINE] | Not Active | Not Active | Not Active | Not Active | Not Active | –
TRANSPLATIN | Not Active | – | Not Active | Not Active | Not Active | Ki [1]: Not Active; IC50 (D(3) dopamine receptor; cho, read-out: IC50): 3.32 µM; Ki (D(3) dopamine receptor; cho, read-out: Ki): 1.13 µM; Ki (Histamine H2 receptor; cho-k1): Not Active; Ki [2]: Not Active; Ki ([3]; platelet): Not Active
ZIRCONIUM(IV) CHLORIDE | Not Active | Not Active | Not Active | Not Active | Not Active | Ki [1]: Not Active; Ki (D(3) dopamine receptor; cho): Not Active; Ki (Histamine H2 receptor; cho-k1): Not Active; Ki [2]: Not Active; Ki ([3]; platelet): Not Active
